Measured values published in publication PMC7269146, “Jingzhaotoxin-X, a gating modifier of Kv4.2 and Kv4.3 potassium channels purified from the venom of the Chinese tarantula Chilobrachys jingzhao” (The Journal of Venomous Animals and Toxins Including …, 2020).
Where a SMILES comes first, the peptide text is derived from it. Bridges are numbered along the chain shown (N, C = ends).

Target: T1, Kv4.3 (Rattus norvegicus, UniProt Q62897)
T1 construct: expressed in transfected cells; host or cells: HEK293t
T1 sequence (Q62897 1-655): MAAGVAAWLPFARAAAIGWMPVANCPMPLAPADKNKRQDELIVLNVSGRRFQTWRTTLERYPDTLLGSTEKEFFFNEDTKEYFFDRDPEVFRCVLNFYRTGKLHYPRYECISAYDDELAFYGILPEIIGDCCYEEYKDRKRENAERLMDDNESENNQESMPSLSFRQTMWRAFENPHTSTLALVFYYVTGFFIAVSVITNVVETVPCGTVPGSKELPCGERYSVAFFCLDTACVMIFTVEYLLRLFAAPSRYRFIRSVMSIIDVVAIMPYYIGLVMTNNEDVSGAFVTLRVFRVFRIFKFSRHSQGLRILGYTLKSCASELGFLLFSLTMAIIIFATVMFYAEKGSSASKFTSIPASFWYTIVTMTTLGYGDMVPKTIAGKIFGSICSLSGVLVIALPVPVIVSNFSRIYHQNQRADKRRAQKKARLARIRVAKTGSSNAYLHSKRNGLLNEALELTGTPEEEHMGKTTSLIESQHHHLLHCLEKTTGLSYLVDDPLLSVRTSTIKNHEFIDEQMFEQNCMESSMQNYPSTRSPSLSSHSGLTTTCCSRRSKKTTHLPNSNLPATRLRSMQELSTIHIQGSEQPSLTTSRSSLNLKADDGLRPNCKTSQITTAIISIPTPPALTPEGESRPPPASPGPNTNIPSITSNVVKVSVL
Assay: whole-cell patch-clamp, Kv4.3 in HEK293t cells, concentration-response and time course
Type: cell-based
From the text: Rat cDNA genes encoding Kv4.2 (Accession: NM_031730.2) and Kv4.3 (Accession: AB003587.1) were subcloned to vector pcDNA3.1. In addition, human cDNA genes encoding Nav1.7 (Accession: DQ857292.1) and Nav1.5 (Accession: AB158469.2) were subcloned to vectors pcDNA3.1-mod and pcDNA3.1, separately. Then, Kv4.2, Kv4.3, Nav1.5 and Nav1.7 constructs were transiently transfected into the human embryonic kidney 293t (HEK293t) cells using lipofectamine 2000 (Invitrogen, USA) in accordance with manufacturer protocols. Thereafter, HEK293 cells were inoculated within Dulbecco’s modified Eagle’s medium (DMEM) containing 10% fetal bovine serum (FBS) at 5% CO2 and 37°C. The Kv4.3 channel and the Kv4.2 counterpart were then transfected in the absence of β subunit. Subsequently, cells were incubated with a DNA-lipofectamine mixture (one reporter plasmid for green fluorescence protein and channel constructs) for 4-6 h, and were washed with the fresh medium.
An EPC-10 patch-clamp amplifier (HEKA, Germany) was employed to record the potassium currents at the configuration of whole-cell patch-clamp under an ambient temperature of 22-25°C. The resistance was 2.0-3.0 MΩ when the recording pipette contained a full volume of internal solution (supplemented with 140 mM KCl, 10 mM HEPES, 2.5 mM MgCl2, 5 mM ATP and 11 mM EGTA). KOH was utilized to adjust the pH to 7.2, while sucrose was employed to adjust the osmolarity to 310 mOsm/L. The culture medium was replaced with an external solution containing 150 mM NaCl, 2.5 mM CaCl2, 10 mM HEPES, 2 mM MgCl2, 5 mM KCl, and 10 mM D-glucose. Similarly, sucrose and NaOH were applied to adjust the osmolarity to 330 mOsm/L and pH to 7.4. […] The series resistance was maintained at about 5 MΩ, with 65-70% compensation. Finally, the leakage currents and linear capacitance were subtracted digitally according to the P/4 protocol. […]
On-rates were determined by fitting time course data with a single exponential decay function (2): y = Ae^-kx + C, where x is the time, A is the normalized current value before the application of toxin (usually 1.0), and C is the final normalized current value following the block by the toxin. The on-rate (τon) was determined from the inverse of the rate constant k.
Off-rates were determined by fitting time course data with a double exponential association function (3): y = A(1-e^-kx) + B(1-e^-fx) + C, where x is the time, A or B is the normalized current value after washout of the toxin (usually 1.0 if complete washout occurred), and C is the normalized current value before the washout of the toxin. The off-rate (τoff) was determined from the inverse of the rate constant k or f.

Structure (SMILES): CC(C)C[C@@H]1NC(=O)[C@H](CCCCN)NC(=O)[C@H](Cc2ccc(O)cc2)NC(=O)[C@@H]2CSSC[C@@H]3NC(=O)[C@H](Cc4ccc(O)cc4)NC(=O)[C@H](Cc4ccccc4)NC(=O)CNC(=O)[C@H](C)NC(=O)[C@H](CSSC[C@H](NC(=O)[C@@H](N)CC(C)C)C(=O)N[C@@H](CO)C(=O)N[C@@H](CCCNC(=N)N)C(=O)N[C@@H](CCC(=O)O)C(=O)NCC(=O)N[C@@H](CCC(=O)O)C(=O)N[C@@H](Cc4ccccc4)C(=O)N2)NC(=O)[C@H](CSSC[C@@H](C(=O)N[C@@H](Cc2ccc(O)cc2)C(=O)N[C@@H](CCCNC(=N)N)C(=O)N[C@@H](CC(N)=O)C(=O)O)NC(=O)[C@H](Cc2c[nH]cn2)NC(=O)[C@H](CC(C)C)NC(=O)[C@H](C(C)C)NC(=O)[C@H](Cc2ccccc2)NC(=O)[C@H](C)NC(=O)[C@H](CCCCN)NC3=O)NC(=O)[C@H](CCCCN)NC(=O)[C@H](CCCNC(=N)N)NC1=O [JZTX-X, Jingzhaotoxin-X] (H-LCSREGEFCYKLRKCCAGFYCKAFVLHCYRN-OH; disulfide 2-16, 9-21, 15-28; N-terminus assumed)
- inhibition of Kv4.3 at resting potential without pulses (-80 mV, no pulse during first ~100 s of treatment with 200 nM or 500 nM (order Kv4.2, Kv4.3), same as with pulses at 5 s intervals, n = 5): approximately 95%
- IC50 (HEK293t cells, 1 nM-10 μM, 300-ms step to +20 mV from -80 mV, 22-25°C, pH 7.4, Hill equation fit, n = 8, read-out: IC50 for Kv4.3 channels): 210 nM
- Hill Coefficient, Kv4.3 (HEK293t cells, +20 mV from -80 mV, n = 8): 1.17
- reversal of Kv4.3 inhibition after rinsing (in 3 min following rinsing, high JZTX-X dose, HEK293t cells, n = 6): > 95%
